Data: US10519160B2, “Imaging agents for neural flux” (The General Hospital Corporation, priority 2014, dated 2019)

Experiments:
olfactory epithelium [1] = assay: PET imaging of radiotracer uptake and specific binding with unlabeled-compound pretreatment in rats; type: in vivo, Sprague-Dawley rat
From the text: Prior to imaging, animals were anesthetized with isoflurane and a catheter was placed in a lateral tail vein. An extension line was used to attach the catheter to a syringe with heparinized saline, which was used to prevent clotting of the line and catheter. Animals were then placed in one of two instruments (a GammeMedicaTriumph PET/CT/SPECT scanner or a Siemens R4 PET scanner) and maintained under isoflurane anesthesia for the imaging period. For scans completed in the Triumph scanner, CT images of the animals were taken for PET image attenuation. For animals imaged in the R4, a Germanium (Ge) 68 or a Cobalt (Co) 57 line source was used to create an attenuation correction map. Following imaging, animals were placed in their cages and monitored until they recovered from the anesthesia.
Male Sprague-Dawley rats were imaged with [^11C] radiolabeled N-benzyl-2-fluoro-9-methyl-9H-purin-6-amine following treatment with [^12C] radiolabeled N-benzyl-2-fluoro-9-methyl-9H-purin-6-amine to determine the specific binding of the radiotracer in the olfactory epithelium. Animals were injected with [^12C] radiolabeled N-benzyl-2-fluoro-9-methyl-9H-purin-6-amine (i.v.; 16 mg/kg; 4 mg/mL in 10% DMSO, 10% Tween 20, and 80% saline). After 5 min, animals were injected with [^11C] radiolabeled N-benzyl-2-fluoro-9-methyl-9H-purin-6-amine (0.3-1.5 mCi), in 10% ethanol, 90% saline). [^11C] […] Although [^11C] […] N-benzyl-2-fluoro-9-methyl-9H-purin-6-amine binding in the presence of unlabeled N-benzyl-2-fluoro-9-methyl-9H-purin-6-amine, shown in FIG. 1A-1D.
Animals were injected with an unlabeled N-benzyl-2-fluoro-9-methyl-9H-purin-6-amine (0.1-16 mg/kg in 10% DMSO, 10% Tween 20, and 80% saline). Following this, animals were injected with [^11C] radiolabeled N-benzyl-2-fluoro-9-methyl-9H-purin-6-amine (0.3-1.5 mCi, in 10% ethanol, 90% saline). For the self-blocking dose-response study, the animals were co-administered with N-benzyl-2-fluoro-9-methyl-9H-purin-6-amine and [^11C] radiolabeled N-benzyl-2-fluoro-9-methyl-9H-purin-6-amine in 10% DMSO, 10% Tween 20, 10% ethanol and 70% saline in 1 mL.

olfactory epithelium [2] = assay: PET-MR imaging of radiotracer uptake in non-human primate; type: in vivo, rhesus macaque; details: NHPs
Description: The non-human primates were initially anesthetized with ketamine, followed by maintenance with isoflurane. Animals were placed on the imaging bed and two lines were inserted, an IV line for tracer administration and an arterial line for blood sampling. The animals were scanned for 90 minutes, including time for the MR structural scan. During the scan and tracer injection, the heart and breathing rate of the animal were monitored. Tracer doses were 4-6 mCi (bolus or bolus-plus-infusion) with or without treatment with study compounds (nonradioactive ‘blocking agent’). Prior to tracer injection, the purified tracer was analyzed on an analytical HPLC instrument to determine the purity (must be >95% chemical purity, must be >99% radiochemical purity) and specific activity (must be >1.0 Ci·μmol^−1 of the compound). As standard practice for all NHP work, pyrogenicity, chemical and radiochemical stability, residual solvents, pH, and sterility (post injection) were tested for. For [^11C] radiolabeled compounds, paired studies were performed with radiotracer injections spaced >2.5 h apart. For [^18F] studies, paired studies were performed by assessing baseline and pretreatment effect on two separate days. […]

[3] = PET, i.v. radiotracer, male Sprague-Dawley rats

## [11CH3]n1cnc2c(NCc3ccccc3)nc(F)nc21 [[^11C] Radiolabeled N-benzyl-2-fluoro-9-methyl-9H-purin-6-amine]
Olfactory epithelium [1]; PET, brain
  non-specific binding: low non-specific binding
  specific binding in the brain: limited specific binding in the brain
Olfactory epithelium [1]; [3]
  initial uptake in the brain: high initial uptake in the brain
  removal from the brain: fast removal from the brain
Olfactory epithelium [1]; PET, nasal cavity where olfactory receptor neurons are located, rats
  specific binding in the nasal cavity: specific binding in the nasal cavity
Olfactory epithelium [1]; nasal cavity, rats, unlabeled compound i.v. 16 mg/kg 5 min before tracer
  change of radiotracer binding in the presence of unlabeled N-benzyl-2-fluoro-9-methyl-9H-purin-6-amine: decrease
Olfactory epithelium [2]
  specific binding in the nasal cavity: specific binding is present in the nasal cavity
Olfactory epithelium [2]; nasal cavity
  change of radiotracer binding in the presence of unlabeled N-benzyl-2-fluoro-9-methyl-9H-purin-6-amine: decrease
